Data published in article PMC8365601, “Terphenyl-Based Small-Molecule Inhibitors of Programmed Cell Death-1/Programmed Death-Ligand 1 Protein–Protein Interaction” (Journal of Medicinal Chemistry, 2021).

Legend:
[1] = system: primary CD4+ and CD8+ T cells (PBMCs); experiment: T-cell activation (TCA) assay, PBMCs with CHO/TCRAct/PD-L1 cells, flow cytometry; format: cell-based, human; conditions: 48 h; compounds 0.1, 0.5, 2.5 μM; mAbs 5 μg/mL
Description: A standard ICB assay relies on artificial Jurkat-ECs, which are surrogates of T-cells. To verify the potential of the compounds to reactivate the PD-L1-blocked primary T cells, a modified assay termed T-cell activation (TCA) was carried out.[32] In this assay, human primary peripheral blood mononuclear cells (PBMCs) are allowed to make contact with CHO/TCRAct/PD-L1 cells alone or in the presence of PD-1/PD-L1 blockers, and the activation of CD4^+ and CD8^+ T cell is monitored by flow cytometry.
Anticoagulant citrate dextrose-A-treated blood from healthy donors was purchased from the Regional Center of Blood Donation and Blood Therapy in Krakow, Poland. PBMCs were isolated from whole blood by density gradient centrifugation using Pancoll human separating solution (PAN-Biotech GmbH, Aidenbach, Germany). The separated cells were washed and resuspended in RPMI 1640 medium (Biowest) containing 10% FBS (Biowest). PBMCs were added at an amount of 3 × 10^5 to CHO, CHO/TCRAct, or CHO/TCRAct/PD-L1 cells preseeded on 24-well plates in the presence of either anti-PD-L1 mAbs (at the final concentration 5 μg/mL): durvalumab (Selleckchem), atezolizumab (Selleckchem), or avelumab (MedChemExpress) or tested compounds at the concentrations 0.1, 0.5, and 2.5 μM. Untreated cells were used as controls for antibody treatment, while DMSO-treated cells [0.1% (v/v)] were used as controls for compound treatment. The cells were incubated for 48 h (37 °C, 5% CO2) and then detached from the plates with TrypLe Select Enzyme (Thermo Fisher). PBMCs were stained for 20 min at room temperature with the antibodies: anti-CD4-FITC, anti-CD8-BV510, anti-CD69-APC, anti-CD25-PE, anti-HLA-DR-PerCP, and anti-PD1-PECy7 (Becton Dickinson Biosciences, BD). Following two washing steps, the cells were analyzed with a FACSCanto II cytometer. Data analysis was carried out with FlowJo software, followed by statistical significance calculations done with Origin Pro 2020 software (OriginLab). Statistical significance was analyzed with one-way analysis of variance (ANOVA), followed by the Fisher’s posthoc test: *p < 0.05, **p < 0.01, […].

[2] = Cytotoxicity assay toward Jurkat-ECs; format: cell-based; conditions: human, Jurkat-EC cells, SI csv
Description: The cytotoxicity of compounds was verified toward Jurkat-ECs since these cells provide the readout in the ICB assay and present a much higher degree of susceptibility to the compounds’ toxicity than CHO-K1 cells (not shown). Jurkat-ECs were seeded on 96-well transparent plates in the presence of increasing concentrations of the compounds with DMSO-treated cells as a control. The concentration of DMSO was kept constant (0.1%). After 48 h of incubation, a tetrazolium reagent, Biolog redox dye MIX MB (Biolog), was added according to the manufacturer’s protocol, and the culture plates were incubated for an additional 2 h (37 °C, 5% CO2). The absorbance was measured using a Spark microplate reader (Tecan) at 590 nm with 750 nm as a reference. The data are presented as Jurkat-EC survival relative to DMSO-treated control cells. Data points represent mean ± SD values from three independent experiments. Half-maximal effective concentrations (EC50 values) were calculated from the dose–response curve using OriginPro 2020 (OriginLab) software.

human PD-L1 = target: T1, human PD-L1 (Homo sapiens, UniProt Q9NZQ7); experiment: 1H NMR titration with human PD-L1; format: binding; conditions: molar ratio 1:1
T1 construct: pET-21b plasmid carrying the PD-L1 gene (amino acids 18–134); made in house; host or cells: Escherichia coli BL21
T1 sequence (Q9NZQ7 18-134): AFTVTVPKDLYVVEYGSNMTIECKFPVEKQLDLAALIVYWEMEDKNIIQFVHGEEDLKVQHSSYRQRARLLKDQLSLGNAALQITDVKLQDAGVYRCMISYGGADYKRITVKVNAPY
Description: (§1) NMR spectra were recorded in PBS pH 7.4 containing 10% (v/v) of D2O added to the samples to provide the lock signal. Water suppression was carried out using the WATERGATE sequence. All the spectra were recorded at 300 K using a Bruker AVANCE 600 MHz spectrometer with the cryo-platform. The spectra were recorded at the ligand/protein ratio of 1:1, unless stated otherwise. The samples were prepared by adding small amounts of a 50 mM ligand stock solution in DMSO to the protein solution (0.20 mL) of PD-L1 fragment at a concentration of 0.2 mM. Spectra were visualized using TopSpin 4.0.2.

[3] = system: PBMCs cocultured with CHO/TCRAct/PD-L1 cells; experiment: Cytokine accumulation in culture media of the TCA assay (CBA Th1/Th2/Th17 kit); format: cell-based, human; conditions: TCA assay supernatants, four donors
Description: In addition to the expression of surface markers, the accumulation of immune-related cytokines in the culture media collected in the TCA assay was monitored with the cytometric bead array (CBA) human Th1/Th2/Th17 kit. […] Also, the levels of IL-6, IFN-γ, and IL-2 increased, but these increases were not statistically significant.
The concentration of the cytokines (IL-2, IL-4, IL-6, IL-10, IL-17A, IFN-γ, and TNFα) in supernatants was determined using the CBA Human Th1/Th2/Th17 kit (BD Biosciences), with data acquisition using the FACSCanto flow cytometer. The CBA beads were discriminated in FL-4 and FL-5 channels, while the concentration of specified cytokines was determined by the intensity of FL-2 fluorescence, using the respective standard reference curve and FCAP Array software (BD Biosciences). IL-4 was below the detection level and is not presented in the manuscript. Statistical significance was analyzed with one-way ANOVA using the Origin Pro 2020 software, followed by the Fisher’s posthoc test: *p < 0.05, **p < 0.01, […].

murine PD-L1 = murine PD-L1 (Mus musculus, UniProt Q9EP73); experiment: 1H NMR titration with murine PD-L1; format: binding; conditions: over-titration 1:10 protein:compound
murine PD-L1, sequence (Q9EP73 18-134 limits assumed): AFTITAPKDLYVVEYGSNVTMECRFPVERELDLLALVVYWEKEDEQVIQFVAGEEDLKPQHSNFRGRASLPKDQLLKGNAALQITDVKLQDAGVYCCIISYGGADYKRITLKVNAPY
Description: We additionally compared the spectra of the interaction of 8j with hPD-L1 (Figure 2B) and murine PD-L1 (mPD-L1) (Figure 2C). Only for human PD-L1, changes in NMR were observed upon addition of 8j to the protein.
as §1

- change of hPD-L1 1H NMR spectrum on adding compound (human PD-L1): broadening of the hPD-L1 proton signals
- interaction with mPD-L1 by 1H NMR (murine PD-L1): no interaction was observed
Structure (SMILES): COc1cc(-c2cccc(-c3ccc4c(c3)OCCO4)c2Cl)ccc1CNC(CO)(CO)CO [8j, 2-(((3′-(Benzo-1,4-dioxan-6-yl)-2′-chloro-3-methoxy-[1,1′-biphenyl]-4-yl)methyl)amino)-2-(hydroxymethyl)propane-1,3-diol]
- numbers of PD-1-positive T cells [1]: significant increase
- numbers of activated, CD25-positive and HLA-DR-positive T-cells [1]: increased
- EC50 at 48 h [2]: 2880 ± 390 nM
- accumulation of immune-related cytokines in culture media [3]: significant increases observed for IL-6, TNF-α, IFN-γ, IL-10, and IL-2
